Reference: ChEMBL document CHEMBL5649167, “The SUV4-20 inhibitor A-196 verifies a role for epigenetics in genomic integrity” (Nat Chem Biol, 2017)

Tests used:
[1] = Inhibition of human 5-HT3 receptor expressed in HEK293T cells at 10 uM relative to control; conditions: HEK-293T
Adenosine receptor A1 = target: T1, Adenosine receptor A1 (Homo sapiens, UniProt P30542); test: Inhibition of human Adenosine receptor A1 assessed as inhibition constant
T1 sequence (P30542 whole entry): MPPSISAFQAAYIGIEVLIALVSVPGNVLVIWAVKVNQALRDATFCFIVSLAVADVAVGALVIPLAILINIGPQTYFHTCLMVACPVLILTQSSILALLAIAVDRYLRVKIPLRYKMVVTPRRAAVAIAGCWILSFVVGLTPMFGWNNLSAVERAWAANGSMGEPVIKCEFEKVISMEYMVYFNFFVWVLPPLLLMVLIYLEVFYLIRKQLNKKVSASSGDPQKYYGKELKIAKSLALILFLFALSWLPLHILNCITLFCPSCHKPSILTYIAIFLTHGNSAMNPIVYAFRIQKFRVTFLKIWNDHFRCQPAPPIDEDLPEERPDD

[2] = target: KV channel (voltage-gated potassium channel) (Homo sapiens, UniProt O43525+O43526+O95259+P16389+P17658+P22001+P22459+P22460+P48547+P51787+P56696+Q03721+Q09470+Q12809+Q14003+Q14721+Q16322+Q6PIU1+Q8NCM2+Q8TAE7+Q8TDN1+Q8TDN2+Q92953+Q96KK3+Q96L42+Q96PR1+Q96RP8+Q9BQ31+Q9H252+Q9H3M0+Q9NR82+Q9NS40+Q9NSA2+Q9NZV8+Q9UIX4+Q9UJ96+Q9UK17+Q9ULD8+Q9ULS6+Q9UQ05); test: Inhibition of human KV channel at 10 uM relative to control; type: protein assay
B-cell [3] = test: Induction of DNA repair in mouse B cells assessed as change in ability of splenic cells to switch from IgM to IgG1 at 10 uM incubated for 2 days in the presence of LPS by flow cytometry analysis (Rvb=9.59%); type: functional; conditions: time 2 day
[4] = Inhibition of Rat GABAA assessed as inhibition constant in the presence of PBR
B-cell [5] = test: Induction of DNA repair in mouse B cells assessed as change in ability of splenic cells to switch from IgM to IgE at 1 uM incubated for 3 days in the presence of LPS plus IL-4 by flow cytometry analysis (Rvb=1.97%); type: functional; conditions: time 3 day
[6] = target: T2, 5-hydroxytryptamine receptor 2A (Homo sapiens, UniProt P28223); test: Inhibition of human 5-HT2A receptor expressed in HEK293T cells assessed as inhibition constant; type: cell-based
T2 sequence (P28223 whole entry): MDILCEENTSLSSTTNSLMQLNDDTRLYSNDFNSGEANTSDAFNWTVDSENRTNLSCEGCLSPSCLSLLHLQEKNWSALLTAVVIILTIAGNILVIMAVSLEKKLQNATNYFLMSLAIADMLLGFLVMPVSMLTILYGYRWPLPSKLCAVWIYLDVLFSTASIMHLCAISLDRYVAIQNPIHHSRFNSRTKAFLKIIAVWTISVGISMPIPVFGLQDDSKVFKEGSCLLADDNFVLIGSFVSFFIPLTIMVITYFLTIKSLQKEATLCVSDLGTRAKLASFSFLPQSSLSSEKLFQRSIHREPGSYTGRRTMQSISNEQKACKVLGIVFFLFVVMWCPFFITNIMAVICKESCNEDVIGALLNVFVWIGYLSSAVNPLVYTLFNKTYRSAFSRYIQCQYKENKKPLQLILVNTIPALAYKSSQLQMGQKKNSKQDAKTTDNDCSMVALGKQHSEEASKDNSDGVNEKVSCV

[7] = target: T3, 5-hydroxytryptamine receptor 1A (Homo sapiens, UniProt P08908); test: Inhibition of human 5-HT1A assessed as inhibition constant
T3 sequence (P08908 whole entry): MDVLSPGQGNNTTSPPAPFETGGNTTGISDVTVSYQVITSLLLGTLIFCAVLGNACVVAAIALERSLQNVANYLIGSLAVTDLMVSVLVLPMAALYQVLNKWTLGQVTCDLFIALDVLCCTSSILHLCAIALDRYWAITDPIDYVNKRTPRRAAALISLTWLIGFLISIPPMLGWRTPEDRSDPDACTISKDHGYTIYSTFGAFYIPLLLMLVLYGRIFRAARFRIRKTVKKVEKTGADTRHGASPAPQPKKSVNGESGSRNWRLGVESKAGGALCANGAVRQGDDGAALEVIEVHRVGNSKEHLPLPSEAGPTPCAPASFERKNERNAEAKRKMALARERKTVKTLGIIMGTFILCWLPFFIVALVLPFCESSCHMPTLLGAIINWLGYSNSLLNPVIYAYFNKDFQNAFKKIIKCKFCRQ

[8] = target: L-type calcium channel (verapamil binding site) (Homo sapiens, UniProt O60840+Q01668+Q13698+Q13936); test: Inhibition of human L-type calcium channel verapamil binding site at 10 uM relative to control; type: protein assay
[9] = target: Histone-lysine N-methyltransferase KMT5C (Homo sapiens, UniProt Q86Y97); test: Inhibition of human SUV420H2 using Biotin-tagged H4K20me1 and [3H-SAM] as substrate incubated for 2 hrs by scintillation proximity assay
Histone-lysine N-methyltransferase KMT5C, sequence (Q86Y97 whole entry): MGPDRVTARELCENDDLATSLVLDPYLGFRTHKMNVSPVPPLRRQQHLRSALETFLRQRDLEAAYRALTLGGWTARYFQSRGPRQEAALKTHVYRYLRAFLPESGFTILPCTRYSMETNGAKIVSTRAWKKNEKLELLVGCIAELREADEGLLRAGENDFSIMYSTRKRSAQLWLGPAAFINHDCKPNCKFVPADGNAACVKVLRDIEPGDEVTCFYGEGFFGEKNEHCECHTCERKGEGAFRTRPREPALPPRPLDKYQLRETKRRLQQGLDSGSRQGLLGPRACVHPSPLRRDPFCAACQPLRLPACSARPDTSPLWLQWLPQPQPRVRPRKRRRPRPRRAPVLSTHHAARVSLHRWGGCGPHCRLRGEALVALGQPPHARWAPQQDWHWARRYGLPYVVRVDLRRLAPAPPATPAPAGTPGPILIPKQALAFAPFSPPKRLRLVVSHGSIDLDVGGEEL

B-cell [10] = test: Induction of DNA repair in mouse B cells assessed as change in ability of splenic cells to switch from IgM to IgE at 10 uM incubated for 3 days in the presence of LPS plus IL-4 by flow cytometry analysis (Rvb=1.97%); type: functional; conditions: time 3 day
B-cell [11] = test: Induction of DNA repair in mouse B cells assessed as change in ability of splenic cells to switch from IgM to IgG1 incubated for 2 days at 1 uM in the presence of LPS by flow cytometry analysis (Rvb=9.59%); type: functional; conditions: time 2 day
Adenosine receptor A3 = target: T4, Adenosine receptor A3 (Homo sapiens, UniProt P0DMS8); test: Inhibition of human Adenosine receptor A3 assessed as inhibition constant
T4 sequence (P0DMS8 whole entry): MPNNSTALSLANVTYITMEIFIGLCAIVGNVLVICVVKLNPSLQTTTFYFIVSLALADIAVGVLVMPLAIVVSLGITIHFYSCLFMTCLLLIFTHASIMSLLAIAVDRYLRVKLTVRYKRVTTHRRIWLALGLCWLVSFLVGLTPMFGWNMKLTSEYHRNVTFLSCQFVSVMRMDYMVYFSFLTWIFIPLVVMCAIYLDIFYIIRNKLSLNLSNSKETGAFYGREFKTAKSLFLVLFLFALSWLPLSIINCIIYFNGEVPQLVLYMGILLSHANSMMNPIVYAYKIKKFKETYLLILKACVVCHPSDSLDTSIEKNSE

B-cell [12] = test: Induction of DNA repair in mouse B cells assessed as change in ability of splenic cells to switch from IgM to IgG3 at 1 uM incubated for 4 days in the presence of LPS by flow cytometry analysis (Rvb=5.71%); type: functional; conditions: time 4 day
B-cell [13] = test: Induction of DNA repair in mouse B cells assessed as change in ability of splenic cells to switch from IgM to IgG3 at 10 uM incubated for 4 days in the presence of LPS by flow cytometry analysis (Rvb=5.71%); type: functional; conditions: time 4 day
[14] = target: Histone-lysine N-methyltransferase KMT5B (Homo sapiens, UniProt Q4FZB7); test: Inhibition of recombinant human 6His-(Tev)-G-SUV420H1 (69 to 335 residues) using Biotin-tagged H4K20me1 and [3H-SAM] as substrate incubated for 2 hrs by scintillation proximity assay
Histone-lysine N-methyltransferase KMT5B, sequence (Q4FZB7 whole entry, the tested form may be a part): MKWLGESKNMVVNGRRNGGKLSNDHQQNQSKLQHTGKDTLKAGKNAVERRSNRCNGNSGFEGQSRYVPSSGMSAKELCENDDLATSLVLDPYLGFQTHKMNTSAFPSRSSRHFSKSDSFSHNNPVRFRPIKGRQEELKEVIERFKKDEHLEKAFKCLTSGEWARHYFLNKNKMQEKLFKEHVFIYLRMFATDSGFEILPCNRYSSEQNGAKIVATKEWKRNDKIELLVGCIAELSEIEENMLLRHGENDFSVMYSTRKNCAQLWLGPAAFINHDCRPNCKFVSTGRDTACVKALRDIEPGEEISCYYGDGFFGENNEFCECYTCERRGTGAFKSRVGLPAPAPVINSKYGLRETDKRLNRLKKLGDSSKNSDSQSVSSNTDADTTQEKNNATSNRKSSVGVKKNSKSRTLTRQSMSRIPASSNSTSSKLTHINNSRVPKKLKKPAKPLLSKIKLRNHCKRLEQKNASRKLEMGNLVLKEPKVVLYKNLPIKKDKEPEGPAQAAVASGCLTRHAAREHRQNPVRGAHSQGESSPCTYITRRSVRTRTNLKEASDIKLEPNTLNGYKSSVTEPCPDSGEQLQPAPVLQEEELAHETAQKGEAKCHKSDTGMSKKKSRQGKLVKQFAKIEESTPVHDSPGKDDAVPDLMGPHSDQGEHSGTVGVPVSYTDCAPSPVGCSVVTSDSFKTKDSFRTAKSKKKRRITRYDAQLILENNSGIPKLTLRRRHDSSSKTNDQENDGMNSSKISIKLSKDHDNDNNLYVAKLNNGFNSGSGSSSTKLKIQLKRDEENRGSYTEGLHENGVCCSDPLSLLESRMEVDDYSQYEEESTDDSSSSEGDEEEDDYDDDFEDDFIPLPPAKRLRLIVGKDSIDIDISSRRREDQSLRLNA

[15] = target: Kappa-type opioid receptor (Homo sapiens, UniProt P41145); test: Inhibition of human kappa opioid receptor expressed in stable HEK cells assessed as inhibition constant; type: cell-based
Kappa-type opioid receptor, sequence (P41145 whole entry): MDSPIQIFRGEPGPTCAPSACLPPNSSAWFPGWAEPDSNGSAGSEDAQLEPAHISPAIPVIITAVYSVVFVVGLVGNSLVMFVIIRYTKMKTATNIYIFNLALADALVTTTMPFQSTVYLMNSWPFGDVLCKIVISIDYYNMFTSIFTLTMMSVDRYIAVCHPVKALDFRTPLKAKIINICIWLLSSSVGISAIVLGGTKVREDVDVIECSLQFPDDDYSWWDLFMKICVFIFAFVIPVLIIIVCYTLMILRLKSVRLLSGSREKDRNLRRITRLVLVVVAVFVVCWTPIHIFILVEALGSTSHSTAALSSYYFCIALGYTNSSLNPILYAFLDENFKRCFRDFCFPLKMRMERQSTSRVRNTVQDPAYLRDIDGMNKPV

Adenosine receptor A2a = Adenosine receptor A2a (Homo sapiens, UniProt P29274); test: Inhibition of human Adenosine receptor A2a assessed as inhibition constant
Adenosine receptor A2a, sequence (P29274 whole entry): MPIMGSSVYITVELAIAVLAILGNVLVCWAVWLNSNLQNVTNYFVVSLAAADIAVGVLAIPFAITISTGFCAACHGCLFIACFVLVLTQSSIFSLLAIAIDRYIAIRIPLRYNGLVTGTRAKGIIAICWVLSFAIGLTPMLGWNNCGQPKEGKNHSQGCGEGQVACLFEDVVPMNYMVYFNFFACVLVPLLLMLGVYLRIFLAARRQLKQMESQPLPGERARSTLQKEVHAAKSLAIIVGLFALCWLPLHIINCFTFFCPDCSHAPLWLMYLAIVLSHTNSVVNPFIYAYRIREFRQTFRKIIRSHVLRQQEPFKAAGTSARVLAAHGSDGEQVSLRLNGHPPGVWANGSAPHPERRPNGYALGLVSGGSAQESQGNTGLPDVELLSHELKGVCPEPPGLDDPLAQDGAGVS

[16] = target: T2, 5-hydroxytryptamine receptor 2A; test: Inhibition of human 5-HT2A assessed as inhibition constant
[17] = target: Sodium-dependent serotonin transporter (Homo sapiens, UniProt P31645); test: Inhibition of human 5-HT transporter assessed as inhibition constant
Sodium-dependent serotonin transporter, sequence (P31645 whole entry): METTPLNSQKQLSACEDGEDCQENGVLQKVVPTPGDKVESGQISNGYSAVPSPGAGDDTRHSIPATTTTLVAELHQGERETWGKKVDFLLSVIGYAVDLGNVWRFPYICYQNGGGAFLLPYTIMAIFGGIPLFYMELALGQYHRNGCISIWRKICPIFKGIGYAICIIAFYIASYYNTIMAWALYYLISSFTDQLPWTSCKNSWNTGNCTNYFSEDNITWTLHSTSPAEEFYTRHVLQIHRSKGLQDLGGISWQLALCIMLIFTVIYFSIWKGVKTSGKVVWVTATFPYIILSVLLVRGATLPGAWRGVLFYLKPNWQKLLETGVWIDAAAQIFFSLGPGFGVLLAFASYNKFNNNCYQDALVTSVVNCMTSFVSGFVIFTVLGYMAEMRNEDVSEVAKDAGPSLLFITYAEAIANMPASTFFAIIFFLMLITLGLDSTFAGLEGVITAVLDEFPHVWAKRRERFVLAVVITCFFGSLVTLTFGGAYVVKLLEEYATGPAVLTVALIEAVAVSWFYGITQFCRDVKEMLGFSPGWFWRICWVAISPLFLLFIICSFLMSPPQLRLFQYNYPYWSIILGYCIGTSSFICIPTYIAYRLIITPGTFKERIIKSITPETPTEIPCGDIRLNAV

O=C(c1nnc(NC2CCCC2)c2cc(Cl)c(Cl)cc12)N1CCC(O)CC1
inhibition at 10 µM [1]: -5% | Ki (Adenosine receptor A1): 3.1 µM | inhibition at 10 µM [2]: -5% | Activity (B-cell [3]): 10.6% | Ki [4]: 1.1 µM | Activity (B-cell [5]): 2.45% | Ki [6]: > 10 µM | Ki [7]: > 10 µM | inhibition at 10 µM [8]: 4% | IC50 [9]: > 10 µM | Activity (B-cell [10]): 1.94% | Activity (B-cell [11]): 10.7% | Ki (Adenosine receptor A3): 13 µM | Activity (B-cell [12]): 5.55% | Activity (B-cell [13]): 5.11% | IC50 [14]: > 10 µM | Ki [15]: 2.7 µM | Ki (Adenosine receptor A2a): 20 µM | Ki [16]: 13 µM | Ki [17]: 3.9 µM
